# Results taken from patent US20130338106A1, “COMPOUNDS INHIBITING LEUCINE-RICH REPEAT KINASE ENZYME ACTIVITY” (priority 2011, published 2013).
# Columns and labels:
# Format in all cases: biochemical
# Conditions in all cases: tested at 10 uM, read-out: percent inhibition of the kinase activity
# FGFR3 K650E = molecular target: T1, FGFR3 K650E (Homo sapiens, UniProt P22607, K650E); test: ProfilerPro Kinase Selectivity, FGFR3 K650E
# T1 construct: purchased Caliper LifeSciences
# Description: (§1) Kinome selectivity profiling was performed using two example compounds according to the manufacturer's instructions using Caliper LifeSciences' ProfilerPro Kinase Selectivity Assay Kits. Compounds prepared in Examples 1 and 7 were tested at 10 uM and data were recorded using the Caliper LabChip® EZ Reader™. Each compounds' percent inhibition of the kinase activity measured in this manner is reported in the following lists.
# LTK = molecular target: T2, LTK (Homo sapiens, UniProt P29376); test: ProfilerPro Kinase Selectivity, LTK
# T2 construct: purchased Caliper LifeSciences
# Description: as §1
# DCAMKL1 = molecular target: T3, DCAMKL1 (Homo sapiens, UniProt O15075); test: ProfilerPro Kinase Selectivity, DCAMKL1
# T3 construct: purchased Caliper LifeSciences
# Description: as §1
# PKG1B = molecular target: T4, PKG1B (Homo sapiens, UniProt Q13976); test: ProfilerPro Kinase Selectivity, PKG1B
# T4 construct: purchased Caliper LifeSciences
# Description: as §1
# PRKCH = molecular target: T5, PRKCH (Homo sapiens, UniProt P24723); test: ProfilerPro Kinase Selectivity, PRKCH
# T5 construct: purchased Caliper LifeSciences
# Description: as §1
# EPHA1 = molecular target: T6, EPHA1 (Homo sapiens, UniProt P21709); test: ProfilerPro Kinase Selectivity, EPHA1
# T6 construct: purchased Caliper LifeSciences
# Description: as §1
# PKD1 = molecular target: T7, PKD1 (Homo sapiens, UniProt Q15139); test: ProfilerPro Kinase Selectivity, PKD1
# T7 construct: purchased Caliper LifeSciences
# Description: as §1
# MET M1250T = molecular target: T8, MET M1250T (Homo sapiens, UniProt P08581, M1250T); test: ProfilerPro Kinase Selectivity, MET M1250T
# T8 construct: purchased Caliper LifeSciences
# Description: as §1
# EGFR T790M L858R = molecular target: T9, EGFR T790M L858R (Homo sapiens, UniProt P00533, L858R/T790M); test: ProfilerPro Kinase Selectivity, EGFR T790M L858R
# T9 construct: purchased Caliper LifeSciences
# Description: as §1
# ABL T315I = molecular target: T10, ABL T315I (Homo sapiens, UniProt P00519, T315I); test: ProfilerPro Kinase Selectivity, ABL T315I
# T10 construct: purchased Caliper LifeSciences
# Description: as §1
# PKD2 = molecular target: T11, PKD2 (Homo sapiens, UniProt Q9BZL6); test: ProfilerPro Kinase Selectivity, PKD2
# T11 construct: purchased Caliper LifeSciences
# Description: as §1
# INSR = molecular target: T12, INSR (Homo sapiens, UniProt P06213); test: ProfilerPro Kinase Selectivity, INSR
# T12 construct: purchased Caliper LifeSciences
# Description: as §1
# CK1G1 = molecular target: T13, CK1G1 (Homo sapiens, UniProt Q9HCP0); test: ProfilerPro Kinase Selectivity, CK1G1
# T13 construct: purchased Caliper LifeSciences
# Description: as §1
# CASEIN K1G2 = molecular target: T14, CASEIN K1G2 (Homo sapiens, UniProt P78368); test: ProfilerPro Kinase Selectivity, CASEIN K1G2
# T14 construct: purchased Caliper LifeSciences
# Description: as §1
# SGK3 = molecular target: T15, SGK3 (Homo sapiens, UniProt Q96BR1); test: ProfilerPro Kinase Selectivity, SGK3
# T15 construct: purchased Caliper LifeSciences
# Description: as §1
# SRC = molecular target: T16, SRC (Homo sapiens, UniProt P12931); test: ProfilerPro Kinase Selectivity, SRC
# T16 construct: purchased Caliper LifeSciences
# Description: as §1
# MARK2 = molecular target: T17, MARK2 (Homo sapiens, UniProt Q7KZI7); test: ProfilerPro Kinase Selectivity, MARK2
# T17 construct: purchased Caliper LifeSciences
# Description: as §1
# NTRK2 = molecular target: T18, NTRK2 (Homo sapiens, UniProt Q16620); test: ProfilerPro Kinase Selectivity, NTRK2
# T18 construct: purchased Caliper LifeSciences
# Description: as §1
# EPHA2 = molecular target: T19, EPHA2 (Homo sapiens, UniProt P29317); test: ProfilerPro Kinase Selectivity, EPHA2
# T19 construct: purchased Caliper LifeSciences
# Description: as §1
# PYK2 = molecular target: T20, PYK2 (Homo sapiens, UniProt Q14289); test: ProfilerPro Kinase Selectivity, PYK2
# T20 construct: purchased Caliper LifeSciences
# Description: as §1
# PDGFR A(550) = molecular target: T21, PDGFR A(550) (Homo sapiens, UniProt P16234); test: ProfilerPro Kinase Selectivity, PDGFR A(550)
# T21 construct: purchased Caliper LifeSciences
# Description: as §1
# AMPKA2/B1/G1 = molecular target: T22, AMPKA2/B1/G1 (Homo sapiens, UniProt P54646); test: ProfilerPro Kinase Selectivity, AMPKA2/B1/G1
# T22 construct: purchased Caliper LifeSciences
# Description: as §1
# P70S6K = molecular target: T23, P70S6K (Homo sapiens, UniProt P23443); test: ProfilerPro Kinase Selectivity, P70S6K
# T23 construct: purchased Caliper LifeSciences
# Description: as §1
# RSK3 = molecular target: T24, RSK3 (Homo sapiens, UniProt Q15349); test: ProfilerPro Kinase Selectivity, RSK3
# T24 construct: purchased Caliper LifeSciences
# Description: as §1
# PAK3 = molecular target: T25, PAK3 (Homo sapiens, UniProt O75914); test: ProfilerPro Kinase Selectivity, PAK3
# T25 construct: purchased Caliper LifeSciences
# Description: as §1
# HCK = molecular target: T26, HCK (Homo sapiens, UniProt P08631); test: ProfilerPro Kinase Selectivity, HCK
# T26 construct: purchased Caliper LifeSciences
# Description: as §1
# PDGFRA = molecular target: T27, PDGFRA (Homo sapiens, UniProt P16234); test: ProfilerPro Kinase Selectivity, PDGFRA
# T27 construct: purchased Caliper LifeSciences
# Description: as §1
# PRKCB2 = molecular target: T28, PRKCB2 (Homo sapiens, UniProt P05771); test: ProfilerPro Kinase Selectivity, PRKCB2
# T28 construct: purchased Caliper LifeSciences
# Description: as §1
# MSK1 = molecular target: T29, MSK1 (Homo sapiens, UniProt O75582); test: ProfilerPro Kinase Selectivity, MSK1
# T29 construct: purchased Caliper LifeSciences
# Description: as §1
# CK1D = molecular target: T30, CK1D (Homo sapiens, UniProt P48730); test: ProfilerPro Kinase Selectivity, CK1D
# T30 construct: purchased Caliper LifeSciences
# Description: as §1
# RET Y791F = molecular target: T31, RET Y791F (Homo sapiens, UniProt P07949, Y791F); test: ProfilerPro Kinase Selectivity, RET Y791F
# T31 construct: purchased Caliper LifeSciences
# Description: as §1
# FLT3 = molecular target: T32, FLT3 (Homo sapiens, UniProt P36888); test: ProfilerPro Kinase Selectivity, FLT3
# T32 construct: purchased Caliper LifeSciences
# Description: as §1
# EGFR = molecular target: T33, EGFR (Homo sapiens, UniProt P00533); test: ProfilerPro Kinase Selectivity, EGFR
# T33 construct: purchased Caliper LifeSciences
# Description: as §1
# HIPK2 = molecular target: T34, HIPK2 (Homo sapiens, UniProt Q9H2X6); test: ProfilerPro Kinase Selectivity, HIPK2
# T34 construct: purchased Caliper LifeSciences
# Description: as §1
# MSK2 = molecular target: T35, MSK2 (Homo sapiens, UniProt O75676); test: ProfilerPro Kinase Selectivity, MSK2
# T35 construct: purchased Caliper LifeSciences
# Description: as §1
# NEK2 = molecular target: T36, NEK2 (Homo sapiens, UniProt P51955); test: ProfilerPro Kinase Selectivity, NEK2
# T36 construct: purchased Caliper LifeSciences
# Description: as §1
# AURA = molecular target: T37, AURA (Homo sapiens, UniProt O14965); test: ProfilerPro Kinase Selectivity, AURA
# T37 construct: purchased Caliper LifeSciences
# Description: as §1
# MNK1 = molecular target: T38, MNK1 (Homo sapiens, UniProt Q9BUB5); test: ProfilerPro Kinase Selectivity, MNK1
# T38 construct: purchased Caliper LifeSciences
# Description: as §1
# T23 sequence (P23443 whole entry): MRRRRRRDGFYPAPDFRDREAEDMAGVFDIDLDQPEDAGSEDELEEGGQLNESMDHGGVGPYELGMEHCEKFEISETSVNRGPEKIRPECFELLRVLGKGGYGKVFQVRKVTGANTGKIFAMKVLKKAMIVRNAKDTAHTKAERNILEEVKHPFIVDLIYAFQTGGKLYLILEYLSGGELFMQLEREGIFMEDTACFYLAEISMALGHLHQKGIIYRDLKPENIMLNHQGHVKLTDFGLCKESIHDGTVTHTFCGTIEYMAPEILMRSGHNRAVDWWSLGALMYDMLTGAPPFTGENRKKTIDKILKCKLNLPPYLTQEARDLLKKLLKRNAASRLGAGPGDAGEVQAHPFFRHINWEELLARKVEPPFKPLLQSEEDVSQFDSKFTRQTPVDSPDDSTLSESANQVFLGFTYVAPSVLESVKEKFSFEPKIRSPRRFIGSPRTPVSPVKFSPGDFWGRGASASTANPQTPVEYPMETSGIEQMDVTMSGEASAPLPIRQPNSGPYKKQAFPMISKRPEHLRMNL
# T35 sequence (O75676 whole entry, species assumed): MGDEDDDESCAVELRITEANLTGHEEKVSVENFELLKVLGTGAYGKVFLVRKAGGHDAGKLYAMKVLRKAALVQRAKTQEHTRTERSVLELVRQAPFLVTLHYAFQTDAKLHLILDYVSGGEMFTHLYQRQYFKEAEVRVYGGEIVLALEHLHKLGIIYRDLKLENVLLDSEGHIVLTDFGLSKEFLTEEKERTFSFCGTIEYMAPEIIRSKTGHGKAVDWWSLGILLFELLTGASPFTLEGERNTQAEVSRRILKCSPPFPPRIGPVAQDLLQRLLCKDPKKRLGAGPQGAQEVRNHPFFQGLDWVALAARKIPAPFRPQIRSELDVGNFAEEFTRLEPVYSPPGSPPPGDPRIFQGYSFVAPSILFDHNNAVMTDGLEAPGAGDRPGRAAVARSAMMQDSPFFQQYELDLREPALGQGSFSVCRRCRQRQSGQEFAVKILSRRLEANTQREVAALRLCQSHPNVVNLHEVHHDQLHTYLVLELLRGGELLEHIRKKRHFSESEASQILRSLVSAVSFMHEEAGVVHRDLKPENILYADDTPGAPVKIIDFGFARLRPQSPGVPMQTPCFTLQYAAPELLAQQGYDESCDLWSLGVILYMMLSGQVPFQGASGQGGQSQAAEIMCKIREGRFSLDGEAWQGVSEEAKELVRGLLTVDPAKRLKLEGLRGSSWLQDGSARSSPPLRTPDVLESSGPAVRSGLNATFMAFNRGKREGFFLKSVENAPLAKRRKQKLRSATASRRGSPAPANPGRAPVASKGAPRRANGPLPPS
# T7 sequence (Q15139 whole entry): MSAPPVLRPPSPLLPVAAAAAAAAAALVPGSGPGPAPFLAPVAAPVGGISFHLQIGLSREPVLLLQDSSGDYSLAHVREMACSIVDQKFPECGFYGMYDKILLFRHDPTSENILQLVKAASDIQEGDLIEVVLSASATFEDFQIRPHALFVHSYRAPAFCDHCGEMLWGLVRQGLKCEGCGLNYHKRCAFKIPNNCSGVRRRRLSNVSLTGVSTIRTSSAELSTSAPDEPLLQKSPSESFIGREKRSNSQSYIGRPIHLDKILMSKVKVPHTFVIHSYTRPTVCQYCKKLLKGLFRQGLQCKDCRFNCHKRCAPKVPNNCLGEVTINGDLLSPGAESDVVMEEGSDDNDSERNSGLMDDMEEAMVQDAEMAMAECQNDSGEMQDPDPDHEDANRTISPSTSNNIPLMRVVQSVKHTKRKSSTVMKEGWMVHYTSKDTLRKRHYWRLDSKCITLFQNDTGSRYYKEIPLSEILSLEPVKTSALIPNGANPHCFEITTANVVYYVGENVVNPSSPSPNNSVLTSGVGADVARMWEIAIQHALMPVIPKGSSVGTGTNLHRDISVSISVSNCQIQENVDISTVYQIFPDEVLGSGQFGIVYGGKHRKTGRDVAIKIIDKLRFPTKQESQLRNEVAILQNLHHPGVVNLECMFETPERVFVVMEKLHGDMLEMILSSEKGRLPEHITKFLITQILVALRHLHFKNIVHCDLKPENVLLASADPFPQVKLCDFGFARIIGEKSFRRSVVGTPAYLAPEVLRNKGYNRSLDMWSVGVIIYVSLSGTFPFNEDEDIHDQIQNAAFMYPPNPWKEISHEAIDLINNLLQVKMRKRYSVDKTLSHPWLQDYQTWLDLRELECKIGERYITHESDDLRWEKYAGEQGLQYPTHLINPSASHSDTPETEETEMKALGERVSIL
# T9 sequence (P00533 25-1210 T790M/L858R): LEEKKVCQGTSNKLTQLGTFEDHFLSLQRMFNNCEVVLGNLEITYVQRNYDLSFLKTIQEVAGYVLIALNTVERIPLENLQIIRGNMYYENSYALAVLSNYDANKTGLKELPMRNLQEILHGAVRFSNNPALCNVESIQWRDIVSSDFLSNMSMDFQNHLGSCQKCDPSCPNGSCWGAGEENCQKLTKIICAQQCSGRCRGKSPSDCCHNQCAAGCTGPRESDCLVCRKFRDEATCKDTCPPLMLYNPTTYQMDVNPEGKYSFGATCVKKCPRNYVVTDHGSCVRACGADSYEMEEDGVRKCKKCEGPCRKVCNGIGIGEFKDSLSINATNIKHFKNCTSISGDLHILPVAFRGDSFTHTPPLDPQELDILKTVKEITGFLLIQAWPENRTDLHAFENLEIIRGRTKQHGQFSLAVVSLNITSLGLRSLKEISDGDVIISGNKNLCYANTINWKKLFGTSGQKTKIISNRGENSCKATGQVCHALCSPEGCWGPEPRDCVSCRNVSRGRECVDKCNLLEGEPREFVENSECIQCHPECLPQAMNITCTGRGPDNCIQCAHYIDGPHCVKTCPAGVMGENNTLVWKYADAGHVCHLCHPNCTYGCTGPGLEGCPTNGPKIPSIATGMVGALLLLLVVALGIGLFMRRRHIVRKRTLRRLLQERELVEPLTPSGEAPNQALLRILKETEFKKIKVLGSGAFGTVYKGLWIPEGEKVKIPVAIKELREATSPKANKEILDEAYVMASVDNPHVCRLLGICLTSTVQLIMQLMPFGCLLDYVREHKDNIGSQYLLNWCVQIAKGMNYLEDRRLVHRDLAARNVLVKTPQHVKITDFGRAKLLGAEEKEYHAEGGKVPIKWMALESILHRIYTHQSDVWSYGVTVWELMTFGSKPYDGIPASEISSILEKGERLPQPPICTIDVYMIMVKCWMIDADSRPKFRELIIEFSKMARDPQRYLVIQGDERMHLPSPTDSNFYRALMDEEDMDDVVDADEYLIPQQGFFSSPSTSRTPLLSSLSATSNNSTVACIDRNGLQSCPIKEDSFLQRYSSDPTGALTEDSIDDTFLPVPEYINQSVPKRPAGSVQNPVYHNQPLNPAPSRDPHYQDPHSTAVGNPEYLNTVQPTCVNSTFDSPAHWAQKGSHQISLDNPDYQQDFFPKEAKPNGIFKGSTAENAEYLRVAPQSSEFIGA
# T29 sequence (O75582 whole entry, species assumed): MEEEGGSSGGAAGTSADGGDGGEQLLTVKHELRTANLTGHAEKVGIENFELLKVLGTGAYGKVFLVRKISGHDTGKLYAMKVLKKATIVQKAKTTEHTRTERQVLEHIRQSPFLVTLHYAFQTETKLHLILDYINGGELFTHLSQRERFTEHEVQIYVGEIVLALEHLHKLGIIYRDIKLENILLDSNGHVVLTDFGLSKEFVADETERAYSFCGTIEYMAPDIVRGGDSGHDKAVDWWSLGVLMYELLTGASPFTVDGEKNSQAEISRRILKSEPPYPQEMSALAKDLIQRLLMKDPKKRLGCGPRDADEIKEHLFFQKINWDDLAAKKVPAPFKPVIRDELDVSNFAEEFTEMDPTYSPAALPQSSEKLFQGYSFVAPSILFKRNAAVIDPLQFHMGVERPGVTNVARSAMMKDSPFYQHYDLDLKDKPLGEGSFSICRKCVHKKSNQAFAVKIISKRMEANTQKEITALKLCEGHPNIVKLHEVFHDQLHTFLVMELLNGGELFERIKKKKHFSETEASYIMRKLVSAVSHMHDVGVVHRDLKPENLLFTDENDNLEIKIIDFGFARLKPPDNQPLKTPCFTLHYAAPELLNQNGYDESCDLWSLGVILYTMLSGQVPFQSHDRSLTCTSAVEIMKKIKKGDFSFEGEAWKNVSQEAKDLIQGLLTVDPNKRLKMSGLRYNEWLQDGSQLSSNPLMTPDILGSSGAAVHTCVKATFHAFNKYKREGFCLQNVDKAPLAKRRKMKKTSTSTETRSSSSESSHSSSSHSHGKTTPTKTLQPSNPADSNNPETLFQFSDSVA
# T18 sequence (Q16620 32-822, species assumed): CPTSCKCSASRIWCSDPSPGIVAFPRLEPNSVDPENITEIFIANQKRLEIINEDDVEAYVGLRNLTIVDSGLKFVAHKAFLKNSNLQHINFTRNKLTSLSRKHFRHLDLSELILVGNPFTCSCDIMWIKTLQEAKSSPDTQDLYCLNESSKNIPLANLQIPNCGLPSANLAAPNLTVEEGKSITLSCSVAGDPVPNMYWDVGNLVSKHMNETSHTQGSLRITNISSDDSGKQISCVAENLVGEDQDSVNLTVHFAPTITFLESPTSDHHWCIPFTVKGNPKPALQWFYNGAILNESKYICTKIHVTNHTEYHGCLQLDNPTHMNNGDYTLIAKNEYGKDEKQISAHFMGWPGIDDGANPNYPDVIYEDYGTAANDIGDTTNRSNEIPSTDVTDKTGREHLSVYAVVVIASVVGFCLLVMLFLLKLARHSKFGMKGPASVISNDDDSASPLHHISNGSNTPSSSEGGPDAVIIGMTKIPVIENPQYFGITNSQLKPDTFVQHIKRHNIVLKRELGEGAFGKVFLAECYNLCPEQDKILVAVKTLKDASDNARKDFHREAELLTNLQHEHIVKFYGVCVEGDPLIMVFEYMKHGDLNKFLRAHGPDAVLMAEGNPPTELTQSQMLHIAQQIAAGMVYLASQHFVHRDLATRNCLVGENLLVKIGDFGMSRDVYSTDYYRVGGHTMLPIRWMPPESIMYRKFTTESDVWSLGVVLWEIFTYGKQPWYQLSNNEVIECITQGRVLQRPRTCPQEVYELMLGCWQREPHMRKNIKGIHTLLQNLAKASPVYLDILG
SMILES,inhibition at 10 µM (FGFR3 K650E),inhibition at 10 µM (LTK),inhibition at 10 µM (DCAMKL1),inhibition at 10 µM (PKG1B),inhibition at 10 µM (PRKCH),inhibition at 10 µM (EPHA1),inhibition at 10 µM (PKD1),inhibition at 10 µM (MET M1250T),inhibition at 10 µM (EGFR T790M L858R),inhibition at 10 µM (ABL T315I),inhibition at 10 µM (PKD2),inhibition at 10 µM (INSR),inhibition at 10 µM (CK1G1),inhibition at 10 µM (CASEIN K1G2),inhibition at 10 µM (SGK3),inhibition at 10 µM (SRC),inhibition at 10 µM (MARK2),inhibition at 10 µM (NTRK2),inhibition at 10 µM (EPHA2),inhibition at 10 µM (PYK2),other results
"CSc1sc(-c2cc[nH]n2)c2c1C(=O)CCC2 [Example 1, 3-(Methylsulfanyl)-1-(1H-pyrazol-3-yl)-6,7-dihydro-2-benzothiophen-4(5H)-one]",3.7%,16%,-2.5%,10.8%,1.1%,2.8%,5.5%,5.1%,3.9%,9.9%,-2.5%,3.4%,6.6%,6.9%,4.6%,7.3%,0.3%,16.9%,0.7%,4.2%,inhibition at 10 µM (PDGFR A(550)): 1.5%; inhibition at 10 µM (AMPKA2/B1/G1): -2.7%; inhibition at 10 µM (P70S6K): 5.7%; inhibition at 10 µM (RSK3): 9.4%; inhibition at 10 µM (PAK3): -13.1%; inhibition at 10 µM (HCK): 12.5%; inhibition at 10 µM (PDGFRA): 15.7%; inhibition at 10 µM (PRKCB2): -7.4%; inhibition at 10 µM (MSK1): 5.1%; inhibition at 10 µM (CK1D): 44.6%; inhibition at 10 µM (RET Y791F): 37.6%; inhibition at 10 µM (FLT3): 11.4%; inhibition at 10 µM (EGFR): -3.1%; inhibition at 10 µM (HIPK2): 25.2%; inhibition at 10 µM (MSK2): 4.2%; inhibition at 10 µM (NEK2): -0.8%; inhibition at 10 µM (AURA): 44%; inhibition at 10 µM (MNK1): 1.7%
"CC1(C)CC(=O)c2c(SC3CCCC3)sc(-c3cc[nH]n3)c2C1 [Example 7, 3-(Cyclopentylsulfanyl)-6,6-dimethyl-1-(1H-pyrazol-3-yl)-6,7-dihydro-2-benzothiophen-4(5H)-one]",-4.2%,19.5%,-2.1%,-0.6%,0.8%,-0.2%,-10.6%,-0.3%,13.7%,2.6%,-4.2%,0.9%,10.9%,8.6%,4.6%,1.5%,9.2%,7%,0.7%,-0.6%,inhibition at 10 µM (PDGFR A(550)): -13.8%; inhibition at 10 µM (AMPKA2/B1/G1): 4.5%; inhibition at 10 µM (P70S6K): -4.8%; inhibition at 10 µM (RSK3): 2%; inhibition at 10 µM (PAK3): -170%; inhibition at 10 µM (HCK): -1.1%; inhibition at 10 µM (PDGFRA): -0.7%; inhibition at 10 µM (PRKCB2): 6.4%; inhibition at 10 µM (MSK1): -2.8%; inhibition at 10 µM (CK1D): 12.9%; inhibition at 10 µM (RET Y791F): 11.1%; inhibition at 10 µM (FLT3): 4.6%; inhibition at 10 µM (EGFR): 2.2%; inhibition at 10 µM (HIPK2): 5%; inhibition at 10 µM (MSK2): 10.4%; inhibition at 10 µM (NEK2): 0.9%; inhibition at 10 µM (AURA): 11%; inhibition at 10 µM (MNK1): -5.6%
